Results published in ChEMBL document CHEMBL3751685, “Borrelidin Induces the Unfolded Protein Response in Oral Cancer Cells and Chop-Dependent Apoptosis” (ACS Med Chem Lett, 2015).
Calls of active or inactive are those of the source. The rule behind the calls is not given here.

Columns and labels:
[1] = tested on: UMSCC1; test: Inhibition of cell proliferation in human UMSCC1 cells for 24 hrs by Celltiter Glo assay; format: functional, cell-based
[2] = molecular target: T1, Threonine--tRNA ligase 1, cytoplasmic (Homo sapiens) (UniProt P26639); test: Inhibition of ThRS in human UMSCC1 cells assessed as increase in CHOP mRNA level at 5 uM after 6 hrs by RT-qPCR analysis; format: cell-based
T1 sequence (whole entry): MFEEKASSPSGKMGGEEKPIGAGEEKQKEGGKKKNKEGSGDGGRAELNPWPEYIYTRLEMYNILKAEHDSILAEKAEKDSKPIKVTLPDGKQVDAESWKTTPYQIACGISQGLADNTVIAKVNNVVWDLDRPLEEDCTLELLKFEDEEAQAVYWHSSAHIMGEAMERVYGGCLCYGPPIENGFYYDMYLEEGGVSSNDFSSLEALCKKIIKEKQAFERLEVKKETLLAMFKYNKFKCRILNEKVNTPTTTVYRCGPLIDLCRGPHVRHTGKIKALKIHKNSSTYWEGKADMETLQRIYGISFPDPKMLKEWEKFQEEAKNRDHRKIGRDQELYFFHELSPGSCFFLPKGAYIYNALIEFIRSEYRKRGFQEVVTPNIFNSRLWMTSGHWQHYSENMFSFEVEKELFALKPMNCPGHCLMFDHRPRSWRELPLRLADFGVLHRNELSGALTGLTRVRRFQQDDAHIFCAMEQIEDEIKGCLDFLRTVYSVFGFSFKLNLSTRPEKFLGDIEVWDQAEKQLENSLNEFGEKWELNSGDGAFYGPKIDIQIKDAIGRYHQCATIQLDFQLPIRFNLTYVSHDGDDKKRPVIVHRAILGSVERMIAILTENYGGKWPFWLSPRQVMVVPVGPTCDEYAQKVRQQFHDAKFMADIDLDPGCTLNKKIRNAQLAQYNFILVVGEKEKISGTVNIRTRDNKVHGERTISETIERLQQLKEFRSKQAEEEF

[3] = molecular target: T1, Threonine--tRNA ligase 1, cytoplasmic (Homo sapiens); test: Inhibition of ThRS in human UMSCC1 cells assessed as increase in ATF3 mRNA level at 5 uM after 6 hrs by RT-qPCR analysis; format: cell-based
[4] = molecular target: T1, Threonine--tRNA ligase 1, cytoplasmic (Homo sapiens); test: Inhibition of ThRS in human UMSCC1 cells assessed as increase in ATF4 mRNA level at 5 uM after 6 hrs by RT-qPCR analysis; format: cell-based
[5] = molecular target: T1, Threonine--tRNA ligase 1, cytoplasmic (Homo sapiens); test: Inhibition of ThRS in human UMSCC1 cells assessed as increase in XBP1 splicing by RT-PCR analysis; format: cell-based
[6] = tested on: UMSCC14A; test: Inhibition of cell proliferation in human UMSCC14A cells for 24 hrs by Celltiter Glo assay; format: functional, cell-based
[7] = tested on: UMSCC23; test: Inhibition of cell proliferation in human UMSCC23 cells for 24 hrs by Celltiter Glo assay; format: functional, cell-based
[8] = Cytotoxicity against HEK cells after 24 hrs by CelltiterGlo assay; format: cell-based; settings: human, hek293, 24 h
[9] = molecular target: T1, Threonine--tRNA ligase 1, cytoplasmic (Homo sapiens); test: Inhibition of ThRS in human UMSCC1 cells assessed as increase in UPR-related gene expression at 10 uM by RT-PCR analysis; format: cell-based
[10] = molecular target: T1, Threonine--tRNA ligase 1, cytoplasmic (Homo sapiens); test: Inhibition of ThRS in human UMSCC1 cells assessed as increase in DNA damaging-related gene expression at 10 uM by RT-PCR analysis; format: cell-based
[11] = molecular target: T1, Threonine--tRNA ligase 1, cytoplasmic (Homo sapiens); test: Inhibition of ThRS in human UMSCC1 cells assessed as increase in apoptosis-related gene expression at 10 uM by RT-PCR analysis; format: cell-based
[12] = tested on: UMSCC1; test: Effect on Bip/GRP78 mRNA level in human UMSCC1 cells at 5 uM after 6 hrs by RT-qPCR analysis; format: functional, cell-based
[13] = tested on: A549; test: Inhibition of cell proliferation in human A549 cells expressing BAX/BAK (-/-) after 24 hrs by CelltiterGlo assay; format: functional, cell-based
[14] = tested on: MEF; test: Inhibition of cell proliferation in mouse MEF cells expressing eIF2alpha Ser51Ala mutant after 16 hrs Celltiter Glo assay; format: functional, cell-based
[15] = tested on: MEF; test: Inhibition of cell proliferation in mouse MEF cells expressing Chop(-/-) after 16 hrs Celltiter Glo assay; format: functional, cell-based
[16] = tested on: MEF; test: Inhibition of cell proliferation in mouse MEF cells expressing Atf4(-/-) after 16 hrs CelltiterGlo assay; format: functional, cell-based
[17] = tested on: MEF; test: Inhibition of cell proliferation in mouse MEF cells expressing Hri(-/-) after 16 hrs CelltiterGlo assay; format: functional, cell-based
[18] = tested on: MEF; test: Inhibition of cell proliferation in mouse MEF cells expressing Pkr(-/-) after 16 hrs CelltiterGlo assay; format: functional, cell-based
[19] = molecular target: T2, Threonine--tRNA ligase 1, cytoplasmic (Mus musculus) (UniProt Q9D0R2); settings: MEF, 5 uM
T2 sequence (whole entry): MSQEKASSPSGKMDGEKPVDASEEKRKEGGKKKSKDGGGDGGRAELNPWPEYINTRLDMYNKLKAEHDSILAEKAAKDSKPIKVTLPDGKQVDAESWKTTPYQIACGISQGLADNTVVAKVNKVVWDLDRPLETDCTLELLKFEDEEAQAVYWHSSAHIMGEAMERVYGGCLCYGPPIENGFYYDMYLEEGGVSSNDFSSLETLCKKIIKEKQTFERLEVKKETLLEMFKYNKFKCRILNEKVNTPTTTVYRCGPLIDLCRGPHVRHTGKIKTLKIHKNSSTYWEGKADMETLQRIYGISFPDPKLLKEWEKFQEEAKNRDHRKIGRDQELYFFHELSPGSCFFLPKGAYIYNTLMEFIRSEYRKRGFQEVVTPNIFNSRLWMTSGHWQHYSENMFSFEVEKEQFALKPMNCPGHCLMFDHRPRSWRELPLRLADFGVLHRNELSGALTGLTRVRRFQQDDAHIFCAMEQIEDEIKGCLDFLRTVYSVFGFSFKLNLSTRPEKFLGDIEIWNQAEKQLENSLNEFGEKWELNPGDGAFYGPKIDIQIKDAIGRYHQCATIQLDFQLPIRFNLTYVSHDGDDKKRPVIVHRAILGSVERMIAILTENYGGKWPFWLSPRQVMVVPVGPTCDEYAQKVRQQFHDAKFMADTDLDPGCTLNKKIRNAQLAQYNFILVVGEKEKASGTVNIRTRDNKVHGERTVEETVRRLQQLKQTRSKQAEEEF
Description: Inhibition of ThRs in mouse MEF cells expressing Perk (-/-) assessed as effect on phosphorylated eIF2alpha level at 5 uM by immunoblot analysis

[20] = molecular target: T2, Threonine--tRNA ligase 1, cytoplasmic (Mus musculus); settings: MEF, 5 uM; remark: listed apart in the source
Description: Inhibition of ThRs in mouse MEF cells expressing Perk (-/-) assessed as effect on Chop level at 5 uM by immunoblot analysis

[21] = molecular target: T2, Threonine--tRNA ligase 1, cytoplasmic (Mus musculus); settings: MEF, 5 uM; remark: listed apart in the source
Description: Inhibition of ThRs in mouse MEF cells expressing Gcn2 (-/-) assessed as effect on phosphorylated eIF2alpha level at 5 uM by immunoblot analysis

[22] = molecular target: T2, Threonine--tRNA ligase 1, cytoplasmic (Mus musculus); settings: MEF, 5 uM; remark: listed apart in the source
Description: Inhibition of ThRs in mouse MEF cells expressing Gcn2 (-/-) assessed as effect on Chop level at 5 uM by immunoblot analysis

[23] = molecular target: T2, Threonine--tRNA ligase 1, cytoplasmic (Mus musculus); settings: MEF, 5 uM; remark: listed apart in the source
Description: Inhibition of ThRs in mouse MEF cells expressing Gcn2 (-/-) assessed as effect on Noxa mRNA level at 5 uM by RT-PCR analysis

[24] = molecular target: T2, Threonine--tRNA ligase 1, cytoplasmic (Mus musculus); settings: MEF, 5 uM; remark: listed apart in the source
Description: Inhibition of ThRs in mouse MEF cells expressing Gcn2 (-/-) assessed as effect on Puma mRNA level at 5 uM by RT-PCR analysis

[25] = molecular target: T2, Threonine--tRNA ligase 1, cytoplasmic (Mus musculus); settings: MEF, 5 uM; remark: listed apart in the source
Description: Inhibition of ThRs in mouse MEF cells expressing Gcn2 (-/-) assessed as effect on Gadd45beta mRNA level at 5 uM by RT-PCR analysis

[26] = molecular target: T2, Threonine--tRNA ligase 1, cytoplasmic (Mus musculus); settings: MEF, 5 uM; remark: listed apart in the source
Description: Inhibition of ThRs in mouse MEF cells expressing Gcn2 (-/-) assessed as effect on Trb3 mRNA level at 5 uM by RT-PCR analysis

[27] = molecular target: T2, Threonine--tRNA ligase 1, cytoplasmic (Mus musculus); settings: MEF, 5 uM; remark: listed apart in the source
Description: Inhibition of ThRs in mouse MEF cells expressing Gcn2 (-/-) assessed as effect on Dr5 mRNA level at 5 uM by RT-PCR analysis

Row | SMILES | inhibition [1] | Activity [2] | Activity [3] | Activity [4] | Activity [5] | inhibition [6] | inhibition [7] | Activity [8] | Activity [9] | Activity [10] | Activity [11] | Activity [12] | further results
1 | CC(=O)NC/C1=C/C=C/C[C@@H]([C@@H]2CCC[C@H]2C(N)=O)OC(=O)C[C@H](O)[C@@H](C)C[C@@H](C)C[C@@H](C)C[C@H](C)[C@H]1O | inactive | inactive | inactive | inactive | inactive | inactive | inactive | Toxic | inactive | inactive | inactive | – | –
2 | C[C@@H]1C[C@H](C)C[C@H](C)[C@@H](O)CC(=O)O[C@H]([C@@H]2CCC[C@H]2C(N)=O)C/C=C/C=C(/C#N)[C@H](O)[C@@H](C)C1 | Active | Active | Active | Active | Active | Active | Active | Toxic | inactive | inactive | inactive | inactive | –
3 | C[C@@H]1C[C@H](C)C[C@H](C)[C@@H](O)CC(=O)O[C@H]([C@@H]2CCC[C@H]2C(=O)O)C/C=C/C=C(/C#N)[C@H](O)[C@@H](C)C1 [BORRELIDIN] | Active | Active | Active | Active | Active | Active | Active | Toxic | Active | Active | Active | inactive | inhibition [13]: inactive; inhibition [14]: Active; inhibition [15]: inactive; inhibition [16]: inactive; inhibition [17]: inactive; inhibition [18]: inactive; inhibition [19]: inactive; inhibition [20]: inactive; inhibition [21]: inactive; inhibition [22]: inactive; inhibition [23]: inactive; inhibition [24]: inactive; inhibition [25]: inactive; inhibition [26]: inactive; inhibition [27]: inactive
